27 compounds from US8853203B2, “Diazepinone derivatives” (Novartis AG, priority 2012, dated 2014) can be followed below.

What is called IC50 is the concentration that gives 50% inhibition. As usually defined, the inhibition is the drop in the measured response relative to a control, in per cent.

The target in assay [1] is human mGluR5a receptors (Homo sapiens (Human), UniProt P41594). Description: inhibition of glutamate-induced elevation of intracellular calcium in L(tk-) cells expressing human mGluR5a. Type of assay: cell-based. The note with it: for IC50: glutamate-induced intracellular calcium elevation, L(tk-) cells expressing human mGluR5a, read-out: mGluR5 IC50; for inhibition at 10 µM: LTK, read-out: mGluR5 % inhibition at 10 μM. An excerpt:
Activity of compounds of the present invention was examined by determination to what extent the glutamate-induced elevation of the intracellular calcium concentration in L(tk-) cells expressing human mGluR5a receptors (see L. P. Daggett et al., Neuropharm. Vol. 34, pages 871-886, 1995) is inhibited by utilizing methods as described e.g. by L. P. Daggett et al., Neuropharm. Vol. 34, pages 871-886 (1995) and P. J. Flor et al., J. Neurochem. Vol. 67, pages 58-63 (1996).
A general note: A change in cytosolic calcium serves as a functional read-out for many receptors and channels.

Assay [2] has as its target human mGluR1 (Homo sapiens (Human), UniProt Q13255). Description: mGluR1 antagonism, L-glutamate induced intracellular calcium increase (FLIPR) in CHO cells stably expressing human mGluR1. The note with it: L-glutamate induced intracellular calcium, CHO cells expressing human mGluR1, FLIPR. Type of assay: cell-based. An excerpt:
Activity of compounds of the present invention with respect to mGluR1 antagonism was examined by an assay based on measurements of L-glutamate induced intracellular calcium increases using a 96 well plate-based Fluorometric Imaging Plate Reader (FLIPR), and CHO cells stably expressing human mGluR1. L-glutamate induced robust calcium responses via human mGluR1 in a concentration-dependent manner and in the low micromolar range. The table below represents IC50 values of the inhibition of the glutamate-induced elevation of the intracellular calcium concentration.

Sequence of human mGluR5a receptors (P41594 other isoform, or with tags, fused parts or gaps): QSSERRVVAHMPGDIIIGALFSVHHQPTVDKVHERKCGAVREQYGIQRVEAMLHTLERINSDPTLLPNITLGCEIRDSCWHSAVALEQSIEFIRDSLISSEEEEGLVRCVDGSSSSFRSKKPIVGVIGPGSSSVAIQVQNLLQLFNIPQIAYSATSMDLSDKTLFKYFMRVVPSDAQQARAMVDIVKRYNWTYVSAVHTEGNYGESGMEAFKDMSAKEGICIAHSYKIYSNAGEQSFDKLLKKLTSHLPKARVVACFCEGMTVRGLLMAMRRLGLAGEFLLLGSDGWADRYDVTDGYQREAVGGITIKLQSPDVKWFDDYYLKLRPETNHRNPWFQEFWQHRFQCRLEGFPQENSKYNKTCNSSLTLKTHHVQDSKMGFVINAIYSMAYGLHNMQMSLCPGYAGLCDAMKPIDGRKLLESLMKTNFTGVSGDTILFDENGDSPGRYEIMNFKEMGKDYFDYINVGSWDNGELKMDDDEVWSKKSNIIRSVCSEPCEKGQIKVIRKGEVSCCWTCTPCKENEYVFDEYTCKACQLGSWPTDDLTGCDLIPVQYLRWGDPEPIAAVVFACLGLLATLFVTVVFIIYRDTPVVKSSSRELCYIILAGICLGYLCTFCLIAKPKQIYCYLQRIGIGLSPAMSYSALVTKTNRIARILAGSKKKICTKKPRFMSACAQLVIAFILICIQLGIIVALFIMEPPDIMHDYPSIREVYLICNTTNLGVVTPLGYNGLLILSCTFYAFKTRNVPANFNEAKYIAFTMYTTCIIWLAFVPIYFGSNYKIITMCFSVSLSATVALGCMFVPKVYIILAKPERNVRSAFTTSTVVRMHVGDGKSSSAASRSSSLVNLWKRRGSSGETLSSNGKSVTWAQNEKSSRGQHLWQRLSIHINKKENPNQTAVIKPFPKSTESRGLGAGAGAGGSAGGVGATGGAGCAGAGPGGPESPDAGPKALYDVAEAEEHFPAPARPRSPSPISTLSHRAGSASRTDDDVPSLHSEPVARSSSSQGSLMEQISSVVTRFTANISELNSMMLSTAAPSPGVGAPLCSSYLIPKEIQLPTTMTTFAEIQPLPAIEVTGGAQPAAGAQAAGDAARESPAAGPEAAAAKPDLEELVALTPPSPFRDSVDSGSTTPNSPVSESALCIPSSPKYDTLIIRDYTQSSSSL
Sequence of human mGluR1 (Q13255 19-1194): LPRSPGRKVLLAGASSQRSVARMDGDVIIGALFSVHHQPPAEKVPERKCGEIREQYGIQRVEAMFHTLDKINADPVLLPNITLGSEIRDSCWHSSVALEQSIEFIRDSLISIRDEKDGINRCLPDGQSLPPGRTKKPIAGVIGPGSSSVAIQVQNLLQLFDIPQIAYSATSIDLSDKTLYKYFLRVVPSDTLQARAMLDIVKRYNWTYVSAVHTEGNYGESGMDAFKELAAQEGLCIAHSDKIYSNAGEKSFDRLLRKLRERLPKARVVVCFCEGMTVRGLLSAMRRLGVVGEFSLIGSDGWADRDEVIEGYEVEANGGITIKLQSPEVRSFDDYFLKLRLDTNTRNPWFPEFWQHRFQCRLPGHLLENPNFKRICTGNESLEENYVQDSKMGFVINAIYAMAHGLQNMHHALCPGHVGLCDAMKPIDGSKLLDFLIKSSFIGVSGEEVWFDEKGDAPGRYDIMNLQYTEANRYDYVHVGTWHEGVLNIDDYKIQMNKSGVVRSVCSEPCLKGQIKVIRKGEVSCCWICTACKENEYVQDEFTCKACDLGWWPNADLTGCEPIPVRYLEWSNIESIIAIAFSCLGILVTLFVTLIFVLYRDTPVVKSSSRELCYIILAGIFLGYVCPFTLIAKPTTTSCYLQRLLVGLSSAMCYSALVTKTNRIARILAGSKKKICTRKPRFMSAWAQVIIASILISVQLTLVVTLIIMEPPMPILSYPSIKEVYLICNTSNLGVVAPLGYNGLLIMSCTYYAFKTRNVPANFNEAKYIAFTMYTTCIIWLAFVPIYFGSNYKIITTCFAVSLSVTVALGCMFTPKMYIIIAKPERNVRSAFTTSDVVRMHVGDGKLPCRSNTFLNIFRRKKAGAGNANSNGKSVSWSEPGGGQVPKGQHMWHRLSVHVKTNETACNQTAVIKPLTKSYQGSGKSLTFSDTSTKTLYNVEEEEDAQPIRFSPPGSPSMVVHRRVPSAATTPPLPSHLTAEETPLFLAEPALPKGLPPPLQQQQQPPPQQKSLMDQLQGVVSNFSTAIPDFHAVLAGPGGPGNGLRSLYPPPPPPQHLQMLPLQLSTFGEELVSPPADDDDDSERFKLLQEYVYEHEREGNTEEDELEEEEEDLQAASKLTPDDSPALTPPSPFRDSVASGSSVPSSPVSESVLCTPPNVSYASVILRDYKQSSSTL

For `O=C1CN=C(n2cnc(C3CC3)c2)C=C2c3cccc(-c4cnc(F)nc4)c3CCN12` [Example 99f, 2-(4-cyclopropyl-1H-imidazol-1-yl)-9-(2-fluoropyrimidin-5-yl)-7,8-dihydro-[1,4]diazepino[7,1-a]isoquinolin-5(4H)-one], the values for the IC50 in assay [1] and in assay [2] were 102 nM and 12000 nM, respectively.

Regarding `O=C1CN=C(n2cnc(C3(O)COC3)c2)C=C2c3cccc(-c4ccc(F)nc4)c3CCN12` [Example 106c, 9-(6-fluoropyridin-3-yl)-2-(4-(3-hydroxyoxetan-3-yl)-1H-imidazol-1-yl)-7,8-dihydro-[1,4]diazepino[7,1-a]isoquinolin-5(4H)-one], the IC50 in assay [1] is 1090 nM; in assay [2], > 10000 nM.

With `Cc1ncn(C2=NCC(=O)N3CCc4c(cccc4-c4cnc(F)cn4)C3=C2)n1` [Example 137, 9-(5-fluoropyrazin-2-yl)-2-(3-methyl-1H-1,2,4-triazol-1-yl)-7,8-dihydro-[1,4]diazepino[7,1-a]isoquinolin-5(4H)-one], the IC50 in assay [1] was 48 nM; in assay [2] it was > 10000 nM.

In the case of `C#Cc1cn(C2=NCC(=O)N3CCc4c(cccc4-c4cscn4)C3=C2)cn1` [Example 105, 2-(4-ethynyl-1H-imidazol-1-yl)-9-(thiazol-4-yl)-7,8-dihydro-[1,4]diazepino[7,1-a]isoquinolin-5(4H)-one], the concentration for half-maximal inhibition (IC50) in assay [1] is 122 nM; in assay [2], > 10000 nM.

`O=C1CN=C(n2cnc(C3CC3)c2)C=C2c3cccc(-c4cccnc4F)c3CCN12` [Example 97, 2-(4-cyclopropyl-1H-imidazol-1-yl)-9-(2-fluoropyridin-3-yl)-7,8-dihydro-[1,4]diazepino[7,1-a]isoquinolin-5(4H)-one]: the values for the IC50 in assay [1] and in assay [2] were 37 nM and 5900 nM, respectively.

As to `CO[C@H](C)c1cn(C2=NCC(=O)N3CCc4c(C5CC5)ccc(F)c4C3=C2)cn1` [Example 99j, (R)-9-cyclopropyl-12-fluoro-2-(4-(1-methoxyethyl)-1H-imidazol-1-yl)-7,8-dihydro-[1,4]diazepino[7,1-a]isoquinolin-5(4H)-one], the IC50 in assay [1] worked out at 7 nM; in assay [2] it was 3210 nM.

With `COCCOc1cccc(C2=NCC(=O)N3CCc4c(OC)cccc4C3=C2)c1` [Example 12, 9-methoxy-2-(3-(2-methoxyethoxy)phenyl)-7,8-dihydro-[1,4]diazepino[7,1-a]isoquinolin-5(4H)-one], the IC50 is 46 nM in assay [1] and 1300 nM in assay [2].

`O=C1CN=C(n2cnc(C3CC3)n2)C=C2c3cccc(-c4nccnc4F)c3CCN12` [Example 88b, 2-(3-cyclopropyl-1H-1,2,4-triazol-1-yl)-9-(3-fluoropyrazin-2-yl)-7,8-dihydro-[1,4]diazepino[7,1-a]isoquinolin-5(4H)-one]: the IC50 in assay [1] was 20 nM; in assay [2], > 2000 nM.

Regarding `COc1cn(C2=NCC(=O)N3CCc4c(cccc4C4CC4)C3=C2)cn1` [Example 123d, 9-cyclopropyl-2-(4-methoxy-1H-imidazol-1-yl)-7,8-dihydro-[1,4]diazepino[7,1-a]isoquinolin-5(4H)-one], the IC50 in assay [1] came to 11 nM; in assay [2], 511 nM.

`COc1cccc(C2=NCC(=O)N3CCc4c(ccc(Cl)c4OC)C3=C2)c1` [Example 13, 10-chloro-9-methoxy-2-(3-methoxyphenyl)-7,8-dihydro-[1,4]diazepino[7,1-a]isoquinolin-5(4H)-one]: the half-maximal inhibitory concentration (IC50) in assay [1] is 82 nM; in assay [2] it was 530 nM.

Consider `C=C(C)c1cccc2c1CCN1C(=O)CN=C(n3cnc([C@H](C)OC)c3)C=C21` [Example 119, (S)-2-(4-(1-methoxyethyl)-1H-imidazol-1-yl)-9-(prop-1-en-2-yl)-7,8-dihydro-[1,4]diazepino[7,1-a]isoquinolin-5(4H)-one], for which the figures for the IC50 in assay [1] and in assay [2] were 24 nM and 2600 nM, respectively.

`COCc1cn(C2=NCC(=O)N3CCc4c(cccc4C(C)(C)C)C3=C2)cn1` [Example 125, 9-(tert-butyl)-2-(4-(methoxymethyl)-1H-imidazol-1-yl)-7,8-dihydro-[1,4]diazepino[7,1-a]isoquinolin-5(4H)-one]: the IC50 in assay [1] is 180 nM; in assay [2] it was > 2000 nM.

For the compound `COc1cccc(C2=NCC(=O)N3CCc4c(CN(C)C)cccc4C3=C2)c1` [Example 43, 9-((dimethylamino)methyl)-2-(3-methoxyphenyl)-7,8-dihydro-[1,4]diazepino[7,1-a]isoquinolin-5(4H)-one], the IC50 is 685 nM in assay [1] and > 10000 nM in assay [2].

Consider `CC(C)n1cc(C2=NCC(=O)N3CCc4c(I)cccc4C3=C2)cn1` [Example 35, 9-iodo-2-(1-isopropyl-1H-pyrazol-4-yl)-7,8-dihydro-[1,4]diazepino[7,1-a]isoquinolin-5(4H)-one], for which the 50% inhibitory concentration (IC50) worked out at 14 nM in assay [1] and 15 nM in assay [2].

As to `Cc1ncn(C2=NCC(=O)N3CCc4c(ccc(F)c4-c4ccc(F)nc4)C3=C2)n1` [Example 99o, 10-fluoro-9-(6-fluoropyridin-3-yl)-2-(3-methyl-1H-1,2,4-triazol-1-yl)-7,8-dihydro-[1,4]diazepino[7,1-a]isoquinolin-5(4H)-one], the IC50 in assay [1] is 50 nM; in assay [2], > 10000 nM.

In the case of `COCc1cn(C2=NCC(=O)N3CCc4c(ccc(F)c4C4CC4)C3=C2)cn1` [Example 96-2, 9-cyclopropyl-10-fluoro-2-(4-(methoxymethyl)-1H-imidazol-1-yl)-7,8-dihydro-[1,4]diazepino[7,1-a]isoquinolin-5(4H)-one], the IC50 in assay [1] worked out at 2 nM; in assay [2], 289 nM.

Consider `COCc1cn(C2=NCC(=O)N3CCc4c(cc(F)cc4C4CC4)C3=C2)cn1` [Example 99k, 9-cyclopropyl-11-fluoro-2-(4-(methoxymethyl)-1H-imidazol-1-yl)-7,8-dihydro-[1,4]diazepino[7,1-a]isoquinolin-5(4H)-one], for which the IC50 in assay [1] was determined as 3 nM; in assay [2] it was 561 nM.

`COCc1cn(C2=NCC(=O)N3CCc4c(cccc4-c4cscn4)C3=C2)cn1` [Example 101, 2-(4-(methoxymethyl)-1H-imidazol-1-yl)-9-(thiazol-4-yl)-7,8-dihydro-[1,4]diazepino[7,1-a]isoquinolin-5(4H)-one]: the IC50 was 26 nM in assay [1] and > 10000 nM in assay [2].

As for `Cc1ncc(-c2cccc3c2CCN2C(=O)CN=C(n4cnc(C5CC5)c4)C=C32)s1` [Example 88e, 2-(4-cyclopropyl-1H-imidazol-1-yl)-9-(2-methylthiazol-5-yl)-7,8-dihydro-[1,4]diazepino[7,1-a]isoquinolin-5(4H)-one], the IC50 in assay [1] was found to be 34 nM; in assay [2], 3880 nM.

Take `CO[C@H](C)c1cn(C2=NCC(=O)N3CCc4c(ccc(F)c4C4CC4)C3=C2)cn1` [Example 99n, (R)-9-cyclopropyl-10-fluoro-2-(4-(1-methoxyethyl)-1H-imidazol-1-yl)-7,8-dihydro-[1,4]diazepino[7,1-a]isoquinolin-5(4H)-one]: the IC50 in assay [1] was 6 nM; in assay [2], 2080 nM.

In the case of `Cc1cn(C2=NCC(=O)N3CCc4c(cccc4-c4cncs4)C3=C2)cn1` [Example 82, 2-(4-methyl-1H-imidazol-1-yl)-9-(thiazol-5-yl)-7,8-dihydro-[1,4]diazepino[7,1-a]isoquinolin-5(4H)-one], the concentration for half-maximal inhibition (IC50) in assay [1] was 72 nM; in assay [2], > 10000 nM.

As to `O=C1CN=C(n2cnc(-c3ncco3)c2)C=C2c3cccc(-c4cccnc4F)c3CCN12` [Example 106, 9-(2-fluoropyridin-3-yl)-2-(4-(oxazol-2-yl)-1H-imidazol-1-yl)-7,8-dihydro-[1,4]diazepino[7,1-a]isoquinolin-5(4H)-one], the IC50 is 182 nM in assay [1] and > 10000 nM in assay [2].

Consider `O=C1CN=C(n2cnc(C3CC3)n2)C=C2c3cccc(-c4ncccc4F)c3CCN12` [Example 88c, 2-(3-cyclopropyl-1H-1,2,4-triazol-1-yl)-9-(3-fluoropyridin-2-yl)-7,8-dihydro-[1,4]diazepino[7,1-a]isoquinolin-5(4H)-one], for which the half-maximal inhibitory concentration (IC50) was 271 nM in assay [1] and > 10000 nM in assay [2].

For the compound `COCc1cn(C2=NCC(=O)N3CCc4c(OC(C)C)cccc4C3=C2)cn1` [Example 142, 9-isopropoxy-2-(4-(methoxymethyl)-1H-imidazol-1-yl)-7,8-dihydro-[1,4]diazepino[7,1-a]isoquinolin-5(4H)-one], the IC50 in assay [1] is 273 nM; in assay [2] it was > 2000 nM.

Consider `Cc1ccnn1C1=NCC(=O)N2CCc3c(Cl)cccc3C2=C1` [9-chloro-2-(5-methyl-1H-pyrazol-1-yl)-7,8-dihydro-[1,4]diazepino[7,1-a]isoquinolin-5(4H)-one], for which, in assay [1], the inhibition at 10 µM is < 20%.

For the compound `CCc1cn(C2=NCC(=O)N3CCc4c(cccc4C4(O)COC4)C3=C2)cn1` [2-(4-ethyl-1H-imidazol-1-yl)-9-(3-hydroxyoxetan-3-yl)-7,8-dihydro-[1,4]diazepino[7,1-a]isoquinolin-5(4H)-one], the inhibition at 10 µM in assay [1] is < 20%.

`O=C1CN=C(n2cnc(C3CCC3)n2)C=C2c3cccc(-c4ccc(F)nc4)c3CCN12` [Example 99h, 2-(3-cyclobutyl-1H-1,2,4-triazol-1-yl)-9-(6-fluoropyridin-3-yl)-7,8-dihydro-[1,4]diazepino[7,1-a]isoquinolin-5(4H)-one]: the IC50 in assay [1] was 38 nM.
